Measurements published in patent US8207146B2, “Phenothiazine derivative having a double bond, method for the production thereof, and use thereof as a pharmaceutical” (Sanofi-Aventis, priority 2007, dated 2012).

Molecular target: T1, Human glucokinase (Homo sapiens, UniProt P35557)
T1 sequence (P35557 6-464 isoform P35557-3 limits assumed): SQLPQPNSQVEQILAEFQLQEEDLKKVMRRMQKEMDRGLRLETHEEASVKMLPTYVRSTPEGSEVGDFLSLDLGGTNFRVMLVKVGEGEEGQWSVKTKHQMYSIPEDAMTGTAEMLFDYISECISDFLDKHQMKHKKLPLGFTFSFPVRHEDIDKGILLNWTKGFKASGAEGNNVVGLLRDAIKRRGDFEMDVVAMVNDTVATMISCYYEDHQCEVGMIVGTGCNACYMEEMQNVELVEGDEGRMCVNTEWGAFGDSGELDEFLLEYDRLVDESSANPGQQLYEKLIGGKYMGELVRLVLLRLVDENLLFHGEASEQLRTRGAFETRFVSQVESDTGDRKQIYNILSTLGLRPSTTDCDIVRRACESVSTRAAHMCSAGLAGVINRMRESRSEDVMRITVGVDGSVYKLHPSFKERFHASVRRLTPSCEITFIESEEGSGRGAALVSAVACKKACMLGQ
Conditions: 5 mM glucose; for EC150: concentration of test compound which increases the enzymatic activity by 50%, 1 mM ATP, 25° C., pH 7; for Fold induction: maximum fold stimulation: highest change in extinction in the range 0.1-100 μM relative to change without test substance

| EC150 [µM] | Fold induction | SMILES |
| --- | --- | --- |
| 0.2 | 4.8 | COc1ccc2nc(NC(=O)/C(=C/C3CCC(=O)CC3)c3ccc4c(c3)Nc3ccccc3S4(=O)=O)sc2n1 [Example 4, (E)-2-(5,5-dioxo-5,10-dihydrophenothiazin-2-yl)-N-(5-methoxythiazolo[5,4-b]pyridin-2-yl)-3-(4-oxocyclohexyl)acrylamide] |
| 1.70 | 3.2 | CN1c2ccccc2S(=O)(=O)c2ccc(/C(=C\C3CCCC3)C(=O)Nc3ccn(C)n3)cc21 [Example 1, (E)-3-cyclopentyl-2-(10-methyl-5,5-dioxo-5,10-dihydrophenothiazin-2-yl)-N-(1-methyl-1H-pyrazol-3-yl)acrylamide] |
